This passage reports Emax and DC50 results from patent US11554171B2, “Compounds and methods for the targeted degradation of bromodomain-containing proteins” (Arvinas Operations, Inc., priority 2015, dated 2023).

This experiment concerns c-myc in 22RV-1 cells. Kind of experiment: Human c-myc ELISA assay. The class given is cell-based. As to conditions: Homo sapiens; for Emax: 22Rv1, 18 h, read-out: Degradation of BRD4: Maximum inhibition (%) c-Myc ELISA in 22RV1 cells; for DC50: 22Rv1, read-out: Degradation of BRD4: DC50 (uM) c-Myc ELISA in 22RV1 cells. The method in brief:
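c-myc levels measured by ELISA in RIPA lysates of 22RV-1 cells, calibrated with a 333-0 pg/ml standard curve. Lysates came from cells exposed for 18 h to an 8-point, 1:3 dose series starting at 300 nM or 1 μM final in 0.1% DMSO. Suppression potency given as DC50.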
Background: In an ELISA, binding on a coated surface is turned into a signal by an enzyme label.

Usually DC50 stands for the concentration at which degradation of the target reaches its halfway point. For `Cc1ncsc1-c1ccc(CNC(=O)[C@@H]2C[C@@H](O)CN2C(=O)[C@@H](NC(=O)COCCCOCCNC(=O)C[C@H]2N=C(c3ccc(Cl)cc3)c3c(sc(C)c3C)-n3c(C)nnc32)C(C)(C)C)cc1` [Example 106], the Emax is under 5% and the DC50 is over 1 µM.

For `Cc1ncsc1-c1ccc([C@H](C)NC(=O)[C@@H]2C[C@@H](O)CN2C(=O)[C@@H](NC(=O)CCc2cc(F)cc(OC(C)CNC(=O)C[C@@H]3N=C(c4ccc(Cl)cc4)c4c(sc(C)c4C)-n4c(C)nnc43)c2)C(C)(C)C)cc1` (some centres unmarked) [Example 156], the Emax was 96.5% and the DC50 was under 0.01 µM.

`Cc1ncsc1-c1ccc([C@H](C)NC(=O)[C@@H]2C[C@@H](O)CN2C(=O)[C@@H](C(C)C)n2cc(-c3ccnc(N4CC[C@@H](NC(=O)C[C@@H]5N=C(c6ccc(Cl)cc6)c6c(sc(C)c6C)-n6c(C)nnc65)C4)c3)cn2)cc1` [Example 267]: the Emax worked out at 51.4% and the DC50 was over 1 µM.

As to `Cc1ncsc1-c1ccc(CNC(=O)[C@@H]2C[C@@H](O)CN2C(=O)[C@@H](NC(=O)COc2ccc(S(=O)(=O)CCNC(=O)C[C@@H]3N=C(c4ccc(Cl)cc4)c4c(sc(C)c4C)-n4c(C)nnc43)cc2)C(C)(C)C)cc1` [Example 113], the Emax worked out at 88.5% and the 50% degradation concentration (DC50) lay in the range of 0.01 to 0.1 µM.

On to `Cc1sc2c(c1C)C(c1ccc(Cl)cc1)=N[C@@H](CC(=O)N[C@H]1C[C@H](Oc3ccc(CC(=O)N[C@H](C(=O)N4C[C@H](O)C[C@H]4C(=O)N[C@@H](C)c4ccc(-c5cnnn5C)cc4)C(C)(C)C)cc3)C1)c1nnc(C)n1-2` [Example 250], for which the Emax was 16.1% and the half-maximal degradation concentration (DC50) is over 1 µM.

On to `Cc1ncsc1-c1ccc([C@H](C)NC(=O)[C@@H]2C[C@@H](O)CN2C(=O)[C@@H](C(C)C)n2cc(-c3ccnc(O[C@H]4C[C@@H](NC(=O)C[C@@H]5N=C(c6ccc(Cl)cc6)c6c(sc(C)c6C)-n6c(C)nnc65)C4)c3)cn2)cc1` [Example 218, (2S,4R)-4-hydroxy-N-[(1S)-1-[4-(4-methyl-1,3-thiazol-5-yl)phenyl]ethyl]-1-[(2R)-3-methyl-2-(4-{2-1[(1,3-cis)-3-{2-[(9S)-7-(4-chlorophenyl)-4,5,13-trimethyl-3-thia-1,8,11,12-tetraazatricyclo[8.3.0.0^2,^6]trideca-2(6),4,7,10,12-pentaen-9-yl]acetamido}cyclobutoxy]pyridin-4-yl}-1H-pyrazol-1-yl)butanoyl]pyrrolidine-2-carboxamide], for which the Emax came out at 48% and the DC50 is over 1 µM.

Consider `Cc1ncsc1-c1ccc(CNC(=O)[C@@H]2C[C@@H](O)CN2C(=O)[C@@H](NC(=O)COCCCOc2ccc(-c3cnc(NC(=O)C[C@@H]4N=C(c5ccc(Cl)cc5)c5c(sc(C)c5C)-n5c(C)nnc54)cn3)cc2)C(C)(C)C)cc1` [Example 21, (2S,4R)-1-[(2S)-2-(2-{3-[4-(5-{2-[(9S)-7-(4-chlorophenyl)-4,5,13-trimethyl-3-thia-1,8,11,12-tetraazatricyclo[8.3.0.0^2,^6]trideca-2(6),4,7,10,12-pentaen-9-yl]acetamido}pyrazin-2-yl)phenoxy]propoxy}acetamido)-3,3-dimethylbutanoyl]-4-hydroxy-N-{[4-(4-methyl-1,3-thiazol-5-yl)phenyl]methyl}pyrrolidine-2-carboxamide], for which the Emax stood at 91% and the DC50 was 0.01 to 0.1 µM.

Take `Cc1ncsc1-c1ccc([C@H](C)NC(=O)[C@@H]2C[C@@H](O)CN2C(=O)[C@H](n2cc(-c3ccnc(O[C@H]4C[C@@H](NC(=O)C[C@@H]5N=C(c6ccc(Cl)cc6)c6c(sc(C)c6C)-n6c(C)nnc65)C4)c3)cn2)C(C)(C)C)cc1` [Example 239]: the Emax was determined as 39% and the DC50 was over 1 µM.

Take `Cc1ncsc1-c1ccc([C@H](C)NC(=O)[C@@H]2C[C@@H](O)CN2C(=O)[C@@H](NC(=O)CN2C[C@H](C)N(C3CC4(C3)CN(C(=O)C[C@@H]3N=C(c5ccc(Cl)cc5)c5c(sc(C)c5C)-n5c(C)nnc53)C4)C[C@H]2C)C(C)(C)C)cc1` [Example 359]: the Emax was over 90% and the half-maximal degradation concentration (DC50) lay in the range of 0.01 to 0.1 µM.

For `Cc1ncsc1-c1ccc([C@H](C)NC(=O)[C@@H]2C[C@@H](O)CN2C(=O)[C@@H](NC(=O)COc2ccnc(O[C@H]3C[C@H](NC(=O)C[C@@H]4N=C(c5ccc(Cl)cc5)c5c(sc(C)c5C)-n5c(C)nnc54)C3)c2)C(C)(C)C)cc1` [Example 227], the Emax was 100% and the DC50 was under 0.01 µM.

For the compound `Cc1sc2c(c1C)C(c1ccc(Cl)cc1)=N[C@@H](CC(=O)N[C@H]1C[C@@H](Oc3ccc4oc(C(=O)N[C@H](C(=O)N5C[C@H](O)C[C@H]5C(=O)N[C@@H](C)c5ccc(-c6scnc6CO)cc5)C(C)(C)C)cc4c3)C1)c1nnc(C)n1-2` [Example 342, (2S,4R)-1-[(2S)-3,3-dimethyl-2-({5-[(1,3-cis)-3-{2-[(9S)-7-(4-chlorophenyl)-4,5,13-trimethyl-3-thia-1,8,11,12-tetraazatricyclo[8.3.0.0^2,^6]trideca-2(6),4,7,10,12-pentaen-9-yl]acetamido}cyclobutoxy]-1-benzofuran-2-yl}formamido)butanoyl]-4-hydroxy-N-[(1S)-1-{4-[4-(hydroxymethyl)-1,3-thiazol-5-yl]phenyl}ethyl]pyrrolidine-2-carboxamide], the Emax amounted to 100% and the 50% degradation concentration (DC50) is under 0.01 µM.

For the compound `Cc1ncsc1-c1ccc(CNC(=O)[C@@H]2C[C@@H](O)CN2C(=O)[C@@H](NC(=O)Cc2cccc(OCCCNC(=O)C[C@@H]3N=C(c4ccc(Cl)cc4)c4c(sc(C)c4C)-n4c(C)nnc43)c2)C(C)(C)C)cc1` [Example 61, (2S,4R)-1-[(2S)-2-{2-[3-(3-{2-[(9S)-7-(4-chlorophenyl)-4,5,13-trimethyl-3-thia-1,8,11,12-tetraazatricyclo[8.3.0.0^2,^6]trideca-2(6),4,7,10,12-pentaen-9-yl]acetamido}propoxy)phenyl]acetamido}-3,3-dimethylbutanoyl]-4-hydroxy-N-{[4-(4-methyl-1,3-thiazol-5-yl)phenyl]methyl}pyrrolidine-2-carboxamide], the Emax came out at 96% and the DC50 is 0.01 to 0.1 µM.

For the compound `Cc1sc2c(c1C)C(c1ccc(Cl)cc1)=N[C@@H](CC(=O)N[C@H]1C[C@@H](Oc3ccc(OCC(=O)N[C@H](C(=O)N4C[C@H](O)C[C@H]4C(=O)N[C@@H](C)c4ccc(-n5ccnc5C)cc4)C(C)(C)C)cn3)C1)c1nnc(C)n1-2` [Example 259], the Emax is 65.7% and the DC50 is 0.1 to 1 µM.

Consider `C=Cc1ccc(C2=N[C@@H](CC(=O)Nc3ccc(OCCCOCCCOCC(=O)N[C@H](C(=O)N4C[C@H](O)C[C@H]4C(=O)NCc4ccc(-c5scnc5C)cc4)C(C)(C)C)cc3)c3nnc(C)n3-c3sc(C)c(C)c32)cc1` [Example 63], for which the Emax amounted to 98.5% and the 50% degradation concentration (DC50) was 0.01 to 0.1 µM.

Regarding `Cc1ncsc1-c1ccc(CNC(=O)[C@@H]2C[C@@H](O)CN2C(=O)[C@@H](NC(=O)c2ccn(CCOCCNC(=O)C[C@@H]3N=C(c4ccc(Cl)cc4)c4c(sc(C)c4C)-n4c(C)nnc43)n2)C(C)(C)C)cc1` [Example 91], the Emax is under 5% and the DC50 was over 1 µM.

With `Cc1ncsc1-c1ccc([C@H](C)NC(=O)[C@@H]2C[C@@H](O)CN2C(=O)[C@@H](NC(=O)COCCOc2cccc(NC(=O)C[C@@H]3N=C(c4ccc(Cl)cc4)c4c(sc(C)c4C)-n4c(C)nnc43)c2)C(C)(C)C)cc1` [Example 124], the Emax is 98% and the DC50 was under 0.01 µM.

For `Cc1ncsc1-c1ccc([C@H](C)NC(=O)[C@@H]2C[C@@H](O)CN2C(=O)[C@@H](NC(=O)COCCCOCCOc2cccc(NC(=O)C[C@@H]3N=C(c4ccc(Cl)cc4)c4c(sc(C)c4C)-n4c(C)nnc43)c2)C(C)(C)C)cc1` [Example 129], the Emax came to 96% and the DC50 is under 0.01 µM.

Consider `Cc1ncsc1-c1ccc(CNC(=O)[C@@H]2C[C@@H](O)CN2C(=O)[C@@H](NC(=O)CCCCCCCCNC(=O)C[C@@H]2N=C(c3ccc(Cl)cc3)c3c(sc(C)c3C)-n3c(C)nnc32)C(C)(C)C)cc1` [Example 68], for which the Emax was found to be 95.4% and the DC50 was in the range of 0.01 to 0.1 µM.

`Cc1ncsc1-c1ccc([C@H](C)NC(=O)[C@@H]2C[C@@H](O)CN2C(=O)[C@@H](NC(=O)COc2ccc(O[C@@H](C)CNC(=O)C[C@@H]3N=C(c4ccc(Cl)cc4)c4c(sc(C)c4C)-n4c(C)nnc43)cc2)C(C)(C)C)cc1` [Example 135, (2S,4R)-1-[(2S)-2-{2-[(6-{[(2S)-1-{2-[(9S)-7-(4-chlorophenyl)-4,5,13-trimethyl-3-thia-1,8,11,12-tetraazatricyclo[8.3.0.0^2,^6]trideca-2(6),4,7,10,12-pentaen-9-yl]acetamido}propan-2-yl]oxy}pyridin-3-yl)oxy]acetamido}-3,3-dimethylbutanoyl]-4-hydroxy-N-[(1S)-1-[4-(4-methyl-1,3-thiazol-5-yl)phenyl]ethyl]pyrrolidine-2-carboxamide]: the Emax was 99% and the DC50 is under 0.01 µM.

For the compound `Cc1ncsc1-c1ccc(CNC(=O)[C@@H]2C[C@@H](O)CN2C(=O)[C@@H](NC(=O)COCCOCCOCCOCCOc2ccc(NC(=O)C[C@@H]3N=C(c4ccc(Cl)cc4)c4c(sc(C)c4C)-n4c(C)nnc43)cc2)C(C)(C)C)cc1` [Example 12], the Emax worked out at 100% and the DC50 lay in the range of 0.01 to 0.1 µM.

For the compound `Cc1ncsc1-c1ccc([C@H](C)NC(=O)[C@@H]2C[C@@H](O)CN2C(=O)[C@@H](NC(=O)COCCCOCCN(C)C(=O)C[C@@H]2N=C(c3ccc(Cl)cc3)c3c(sc(C)c3C)-n3c(C)nnc32)C(C)(C)C)cc1` [Example 148], the Emax amounted to 100% and the DC50 is under 0.01 µM.

As for `Cc1ncsc1-c1ccc(CNC(=O)[C@@H]2C[C@@H](O)CN2C(=O)[C@H](C(C)C)n2cc(-c3cccc(O[C@H]4C[C@H](NC(=O)C[C@@H]5N=C(c6ccc(Cl)cc6)c6c(sc(C)c6C)-n6c(C)nnc65)C4)c3)cn2)cc1` [Example 217], the Emax was 91.9% and the DC50 lay within 0.01 to 0.1 µM.
